Data published in patent US7105485B2, “HO-1 suppressor as a diagnostic and prognostic test for dementing diseases” (The Sir Mortimer B. Davis - Jewish General Hospital, priority 2000, dated 2006).
Entries after “also recorded” stand apart in the source; their conditions may differ.

What was measured:
[1] = tested on: HO-1 mRNA; experiment: HOS bioassay: effect of 24 h pre-incubation with plasma or plasma fractions on the induced HO-1 mRNA response of rat astroglia (Northern blot); format: cell-based; settings: normal subjects taking antioxidants; vitamin E 400 U/day (N1); multiple very high-dose antioxidants (N2, N3)
Description: (§1) Brain cell cultures: Rat astroglia were prepared as described in Schipper et al. (1999), herein incorporated by reference, as follows:
(§2) Pregnant Sprague-Dawley rats were obtained from Charles River Breeding Farms. Primary neural cell cultures were prepared from 1-day old neonates by mechanoenzymatic dissociation of cerebral tissue […] as previously described by Chopra et al., (1997), herein incorporated by reference. Cells were grown in Ham's F-12 and high-glucose DMEM (50:50 vol/vol) supplemented with 10 mM HEPES. 5% heat-inactivated horse serum, 5% heat-inactivated fetal bovine serum, and penicillin/streptomycin (50 U/ml and 50 μg/ml, respectively). […] The cultures were then incubated under the above-mentioned conditions for 6 days, at which time >98% of the cells composing the monolayer were astroglia, as determined by immunohistochemical labeling for the astrocyte-specific marker glial fibrillary acidic protein, as described by Chopra et al. (1995), herein incorporated by reference. […]
(§3) RNA isolation and Northern analysis: Cultured astrocytes were harvested using a rubber policeman, and cytoplasmic RNA was isolated using an acid guanidinium thiocyanate/phenol/chloroform extraction method, as described by Chomczynski and Sacchi (1987), herein incorporated by reference. […] Resulting bands on the autoradiograph were analyzed using a phosphorimager S1 densitometer. […]

[2] = tested on: HO-1 mRNA; experiment: Induction of HO-1 mRNA in rat astroglia by cysteamine treatment (Northern blot); format: cell-based; settings: rat astroglia grown in standard culture media, CSH 880 μM x 6 hr
Description: as §1, §2, §3

Compound	astrocyte HO-1 mRNA response to CSH with plasma of normal subjects on antioxidants [1]	HO-1 mRNA bands after cysteamine (CSH) treatment [2]	HO-1 mRNA bands after cysteamine (CSH) treatment ([2]; listed as CSH)
vitamin E	does not affect		
NCCS [Cysteamine]		induces strong HO-1 mRNA bands; also recorded: induces robust HO-1 mRNA bands	intense HO-1 mRNA signal
